This is an account of results in PubChem BioAssay AID1996.

Values after ≈ are worked out from the molar mass of the structure shown.

As a reminder, the solubility (kinetic) is the concentration staying in solution when a stock, usually in DMSO, is diluted into the medium.

For this series the following is noted: buffer; pH 7.4; 200.0 µM.
`O=C(Nc1ccc(Cl)cc1)N1CCOCC1` displayed a kinetic solubility above 36.1 µg/mL.

`CCNS(=O)(=O)c1ccc(CCC(=O)NCc2ccccn2)cc1` registered a solubility (kinetic) above 52.1 µg/mL.

On to `O=C(NC(=S)N1CCCC(C(F)(F)F)C1)c1ccc(F)cc1` (configuration not stated), for which the solubility (kinetic) was 37.9 µg/mL (≈ 113 µM).

On to `COc1ccccc1NC(=S)NC1CC2CCC1C2` (configuration not stated), for which the kinetic solubility was above 41.5 µg/mL.

Compound `Cl.Fc1ccc(CNCc2ccc3c(c2)OCO3)cc1` returned a kinetic solubility above 44.4 µg/mL.

As for `Cc1ccc(CC2C(=O)N(c3cc(C)ccc3C)C(=O)C2C)cc1` (configuration not stated), the kinetic solubility is 4.6 µg/mL (≈ 14.3 µM).

`COc1ccccc1/C=N/OC(=O)c1ccc(F)cc1` came in with a kinetic solubility of 0.7 µg/mL (≈ 2.56 µM).

For `O=C(CCn1c(=O)oc2ccccc21)Nc1ccc(C(=O)O)cc1`, the kinetic solubility was above 48.9 µg/mL.

Turning to `O=C(Nc1ccc(Nc2ccccc2)cc1)c1ccccc1F`, the kinetic solubility stood at 1.5 µg/mL (≈ 4.9 µM).

As for `CCOc1ccc(CNC(=O)c2ccco2)cc1`, the kinetic solubility was above 36.8 µg/mL.

Compound `CC(C)(C)C(=O)Nc1ccc(-c2cnco2)cc1` yielded a solubility (kinetic) above 36.6 µg/mL.

The compound `CCN(CC)S(=O)(=O)c1ccc(C(=O)O)cc1` gave a kinetic solubility of 30.4 µg/mL (≈ 118 µM).

Turning to `CC(=O)c1ccc(NC(=O)[C@@H]2CCCN2C(=O)OC(C)(C)C)cc1`, the kinetic solubility was above 49.9 µg/mL.

In turn, `CCOC(=O)c1cnc(COc2ccc(OC)cc2)[nH]c1=O` gave a kinetic solubility of 44.7 µg/mL (≈ 147 µM).

Turning to `C=CCON1C(=O)C(=O)N(OCC=C)[C@H]2CCCC[C@H]21`, the kinetic solubility was above 42 µg/mL.

Take `COc1ccccc1OCCNC(=O)CN1C(=O)NC2(CCCCC2)C1=O`: the kinetic solubility was above 56.3 µg/mL.

`COc1cccc(NC(=O)c2cccnn2)c1`: the kinetic solubility is above 34.4 µg/mL.

The compound `Cc1ccc(C)c(NC(=O)CCN2C(=O)c3ccccc3C2=O)c1` displayed a solubility (kinetic) of 1.2 µg/mL (≈ 3.72 µM).

In turn, `COc1ccc2c(ccc[n+]2CC(=O)c2ccccc2)c1.[Br-]` showed a kinetic solubility above 53.7 µg/mL.

Compound `NC(=O)COc1ccc2cc(-c3ccc(F)cc3)c(=O)oc2c1` returned a kinetic solubility below 0.7 µg/mL.

In the case of `CCN(CC)CCOCCOC(=O)C(CC)(CC)c1ccccc1`, the kinetic solubility was 47.7 µg/mL (≈ 142 µM).

As for `COc1ccc(S(=O)(=O)NCc2ccc(F)cc2)cc1OC`, the solubility (kinetic) was above 48.8 µg/mL.

In turn, `O=C(Nc1nc2ccsc2c(=O)s1)c1ccc(F)cc1Cl` gave a solubility (kinetic) below 0.4 µg/mL.

As for `O=C(Nc1ccccc1)c1cccc(Cn2cc(C(F)(F)F)ccc2=O)c1`, the kinetic solubility was 2 µg/mL (≈ 5.37 µM).

Compound `CCOP(=O)(OCC)C(Nc1ccc(C)cc1)c1ccco1` (configuration not stated) came in with a kinetic solubility of 46.3 µg/mL (≈ 143 µM).

As to `COc1ccc2c(C)cc(SCC(=O)NC3CCCCC3)nc2c1`, the kinetic solubility came to 1.3 µg/mL (≈ 3.77 µM).

`CC1CCC(NC(=O)C2CC(O)CN2S(=O)(=O)c2ccc([N+](=O)[O-])cc2)CC1` (configuration not stated) yielded a kinetic solubility above 61.7 µg/mL.

Compound `O=S(=O)(NCC1CCCO1)c1ccc(Cl)cc1` (configuration not stated) returned a kinetic solubility of 25.5 µg/mL (≈ 92.5 µM).

In the case of `CCc1nnc(NC(=O)c2ccc(C)o2)s1`, the kinetic solubility is above 35.6 µg/mL.

Consider `COc1ccc(C2(C(=O)NCCc3ccccc3)CCCC2)cc1`, for which the solubility (kinetic) turned out to be 31.1 µg/mL (≈ 96.2 µM).

Turning to `CC(=O)Nc1ccc(NC(=O)CSc2nc3ccccc3c(=O)n2CCCN2CCOCC2)cc1`, the kinetic solubility was 70.9 µg/mL (≈ 143 µM).

Regarding `COc1ccc(Nc2oc(-c3ccc(OC)cc3)nc2C#N)cc1`, the kinetic solubility is 0.7 µg/mL (≈ 2.18 µM). This solubility kinetic lies about 100-fold lower than the previous one.

The compound `O=c1[nH]c2ccc(S(=O)(=O)Nc3ccc(Cl)cc3)cc2[nH]1` yielded a kinetic solubility of 2.2 µg/mL (≈ 6.8 µM).

On to `O=C(O)CCNC(=O)/C(=C\c1ccco1)NC(=O)c1ccco1`, for which the solubility (kinetic) was above 47.7 µg/mL.

`COc1ccc(CCN2C(=S)N(c3ccccc3)C(=O)C2CC(=O)O)cc1OC` (configuration not stated) returned a kinetic solubility above 62.2 µg/mL.

The compound `Cc1cc(C)c2c(n1)sc1c(N3CCN(C)CC3)ncnc12` had a kinetic solubility of 39.6 µg/mL (≈ 126 µM).

With `CC(C(=O)O)N1c2cccc3cccc(c23)S1(=O)=O` (configuration not stated), the solubility (kinetic) is above 41.6 µg/mL.

`Cc1ccc(-c2nonc2NC(=O)c2ccco2)cc1` yielded a kinetic solubility above 40.4 µg/mL.

Compound `Cc1ccc(-c2ccnc3cc(C)nn23)cc1` gave a kinetic solubility above 33.5 µg/mL.

Turning to `Cc1ccc2c(c1)c(-c1csc(N)n1)c(C)n2C`, the kinetic solubility amounted to 13.4 µg/mL (≈ 52.1 µM).

For `Cc1cccc(Oc2nc(-c3ccccn3)nc3ccccc23)c1`, the solubility (kinetic) was determined as 27.6 µg/mL (≈ 88.1 µM).

In turn, `CC(C)(C)Cc1nnc(NC(=O)c2ccco2)s1` showed a kinetic solubility above 39.8 µg/mL.

The compound `O=C(CC(c1ccccc1)c1ccccc1)Nc1ccc(C(=O)O)cc1` yielded a kinetic solubility above 51.8 µg/mL.

Consider `COC(=O)C1=C(C)N(Cc2ccccc2)C(=O)/C1=C\c1ccco1`, for which the solubility (kinetic) was 3.7 µg/mL (≈ 11.4 µM).

In turn, `CCOc1ccc(S(=O)(=O)NCCc2ccccn2)cc1` gave a kinetic solubility above 46 µg/mL.

`CCOc1ccccc1NC(=O)C(=O)CC(=O)c1cccc(OC)c1` yielded a kinetic solubility of 9.6 µg/mL (≈ 28.1 µM).

Compound `COc1ccc(NC(=S)N2CCCCCC2)cc1OC` had a kinetic solubility of 42.4 µg/mL (≈ 144 µM).

The compound `CCN(CC)C1CCS(=O)(=O)C1.Cl` (configuration not stated) came in with a solubility (kinetic) above 34.2 µg/mL.

In turn, `COc1ccc(Nc2nc3ccccc3c(=O)[nH]2)cc1` yielded a solubility (kinetic) of 24.4 µg/mL (≈ 91.3 µM).

As to `COc1cc([N+](=O)[O-])ccc1NC(=O)CN1CCc2cc(OC)c(OC)cc2C1`, the solubility (kinetic) worked out at 34.1 µg/mL (≈ 84.9 µM).

For the compound `COC(=O)c1ccc(NC(=S)N2CCN(C)CC2)cc1`, the solubility (kinetic) was above 44 µg/mL.

Take `Cc1cc2c(cc1S(=O)(=O)N(C)c1ccccc1)n(C)c(=O)n2C`: the solubility (kinetic) is above 51.8 µg/mL.
